In publication PMC12858467, “In vitro toxicokinetics and metabolic profiling of methoxycathinones and methylthiocathinones using human liver systems and hyphenated mass spectrometry” (Archives of Toxicology, 2025):
Read-outs that look alike come from different tables or passages of the source.

Columns and labels:
Assay type in all cases: in vitro ADME
[1] = In vitro plasma protein binding (ultrafiltration, Centrifree); settings: human, pooled human blood plasma, 30 min, 37 °C, ultrafiltration
Method: (§1) PPB was investigated according to a previous study with minor modifications (Kroesen et al. [2025]). Fresh and pooled human blood plasma (450 µL) was spiked with 50 µL of a 5 µM methanolic solution of 4MeO-NE-BP, 4MeO-αP-BP, 4MeO-αP-VP, 4MeS-NE-BP, 4MeS-αP-BP, or 4MeS-αMor-PrP. The mixture was incubated for 30 min at 37 °C and with gentle shaking at 200 rpm. […] The Centrifree devices were centrifuged for 35 min at 1600 × g to obtain 100 µL of the ultrafiltrate (UF). […] Experiments were performed in quadruplicate. Fraction unbound (fu) and PPB were determined by comparing the area ratios of the compound and trimipramine-d3 as an internal standard in the UF and GA using the following equations:1 fu=peak area ratiocompoundUF/ISUF/peak area ratiocompoundGA/ISGA 2 PPB[\%]=1-fu∗100.

[2] = tested on: pooled human liver S9 fraction (pHLS9) and HepaRG cells; assay: In vitro metabolism by pHLS9 and HepaRG cells (LC-HRMS/MS metabolite identification); settings: 25 µM substrate
[3] = tested on: plasma proteins (pooled human blood plasma); assay: In vitro plasma protein binding (ultrafiltration, Centrifree)
Method: as §1

CYP2D6 = target: T1, CYP2D6 (Homo sapiens, UniProt P10635); assay: Monooxygenases activity screening, CYP2D6; settings: 25 µM, 30 min, 37 °C
T1 construct: purchased Discovery Life Sciences (Huntsville, LA, USA); host or cells: baculovirus-infected insect cells (microsomes, Supersomes)
Method: For incubations with CYP2A6 or CYP2C9, phosphate buffer was replaced with 90 mM Tris buffer, according to the manufacturer’s guideline. […] All incubations were done in duplicate and concentrations were fixed. Verapamil (25 µM) was incubated as a positive control.

[4] = read-out: fu (unbound fraction)

T1 sequence (P10635 whole entry): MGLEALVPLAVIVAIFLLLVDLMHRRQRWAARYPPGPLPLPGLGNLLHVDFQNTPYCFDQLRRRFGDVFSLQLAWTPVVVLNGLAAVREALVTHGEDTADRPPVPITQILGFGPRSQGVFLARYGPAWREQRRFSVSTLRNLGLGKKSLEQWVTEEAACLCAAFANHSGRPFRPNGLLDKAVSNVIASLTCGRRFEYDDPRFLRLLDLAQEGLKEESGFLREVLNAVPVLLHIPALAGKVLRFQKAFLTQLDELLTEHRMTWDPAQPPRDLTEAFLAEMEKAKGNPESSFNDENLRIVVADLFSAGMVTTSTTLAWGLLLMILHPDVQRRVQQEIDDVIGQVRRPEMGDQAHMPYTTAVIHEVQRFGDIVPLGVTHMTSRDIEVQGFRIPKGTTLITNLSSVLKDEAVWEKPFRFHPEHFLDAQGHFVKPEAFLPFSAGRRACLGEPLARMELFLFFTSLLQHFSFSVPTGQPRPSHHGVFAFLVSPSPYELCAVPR

| SMILES | fraction unbound at 30 min, 0.5 µM ([1]; read-out: PPB, % (converted)) | fraction unbound at 30 min, 0.5 µM [1, 4] | metabolic reactions (metabolite IDs) identified [2] | number of metabolites tentatively identified [2] | Plasma protein binding, class in words [3] | PPB, % ([3]; 30 min, 37 °C, ultrafiltration) [%] | S-demethylation, only mediated by one CYP isoform (CYP2D6) |
| --- | --- | --- | --- | --- | --- | --- | --- |
| CSc1ccc(C(=O)C(C)N2CCOCC2)cc1 (stereo not drawn) [4MeS-αMor-PrP, 4’-methylthio-2-morpholinopropiophenone] | 0.14 | 0.14 | S-demethylation (MT3.1), hydroxylation (MT3.2), N-oxidation (MT3.3), oxo reduction (MT3.4), lactam formation (MT3.6), N,O-bis-dealkylation (MT3.7), dehydrogenation (MT3.9), and combinations thereof | 10 | – | – | – |
| CCNC(CC)C(=O)c1ccc(OC)cc1 (stereo not drawn) [Compound 4MeO-NE-BP, 4’-methoxy-N-ethylbutyrophenone] | > 0.5 | 0.61 | O-demethylation (MO1.1), hydroxylation (MO1.2), N-dealkylation (MO1.3), hydroxylamine formation (MO1.4), and O-demethylation + sulfation (MO1.5) | 5 | low | 39 | – |
| CCNC(CC)C(=O)c1ccc(SC)cc1 (stereo not drawn) [Compound 4MeS-NE-BP, 4’-methylthio-N-ethylbutyrophenone] | 0.13 | 0.13 | S-demethylation (MT1.1), hydroxylation (MT1.2), N-dealkylation (MT1.3), hydroxylamine formation (MT1.4), hydroxylation + oxidation (MT1.5), N-dealkylation + S-demethylation (MT1.6), and hydroxylamine formation + hydroxylation (MT1.7) | 7 | – | – | CYP2D6 |
